Source: US6127136A, “Detection of dioxin-like compounds by detection of transformed Ah receptor/ARNT complex” (Paracelsian, Inc., priority 1996, dated 2000)
Where “and” joins values, the source holds several entries; their conditions need not be identical. Equal values may be shown once.

Target: T1, transformed Ah receptor (Cavia porcellus, UniProt Q6J287)
T1 construct: TCDD-transformed receptor captured as heterodimer on DRE-oligonucleotide gel; recombinant ARNT added in some protocols
Assay: mini-Ah immunoassay (DRE affinity gel, dot-blot spot density), with or without added recombinant ARNT
Type: biochemical, guinea pig (male Hartley, hepatic cytosol)
Experimental: Male Hartley guinea pigs weighing 300-350 g were obtained from Cornell Research Animal Resources, Cornell University, Ithaca, N.Y. Guinea pigs were anaesthetized and killed with carbon dioxide. Livers were perfused in situ with 100 mL ice-cold perfusion buffer, excised, trimmed of connective tissue, poorly perfused liver and gall bladder and weighed. The liver was minced and five mL of ice-cold HEDG per gram liver were added and the whole homogenized in a 50 mL homogenizer with teflon pestle using at 200 rpm for a total of seven strokes. Crude homogenate was centrifuged at 12,500 RPM in 50 mL tubes in a JA17 rotor in a Beckman J2-MI preparative centifuge at 4 degrees C for 20 minutes.
Procedure for the mini-Ah Immuno Assay
Preparation of Buffers: 155 uM TCDD stock was prepared by dissolving 1 mg 2,3,7,8-tetrachloro-dibenzo-p-dioxin (Cambridge Isotope Labs) in 20 mL DMSO (dimethylsulfoxide) overnight. 10 uM working dilution of TCDD was prepared by diluting 0.129 mL of the stock with 1.871 mL DMSO. 4M NaCl/HEDG was prepared by adding 116.88 g sodium chloride to 300 mL HEDG and adjusting the volume to 500 mL with HEDG. 0.3 M NaCl/HEDG was prepared by diluting 1.5 mL 4 M NaCl/HEDG to 20 mL with HEDG 0.6 M NaCl/HEDG was prepared by diluting 3.0 mL 4 M NaCl/HEDG to 20 mL with HEDG TBST was prepared by dissolving 1.18 g Tris-base, 6.35 g Tris-HCl, 8.76 g NaCL, and 2 mL Tween 20 in 800 mL water, adjusting volume to 1000 mL. Blocker was prepared by dissolving 10 g non-fat dry milk (Carnation) in 200 mL TBST. AP development buffer was prepared by dissolving 11 g Tris-base, 1.6 g Tris-HCl, 5.84 g Sodium Chloride, 10.2 g Magnesium Chloride hexahydrate, in 800 mL water and adjusting the volume to 1000 mL. BCIP stock was prepared by dissolving 100 mg BCIP (5-Bromo-4-Chloro-3-Indolyl Phosphate) in 2 mL N,N-Dimethylformamide, aliquoting into 66 uL portions, and freezing at -20 C until use. NBT stock was prepared by dissolving 250 mg NBT (Nitro Blue Tetrazolium) in 25 mL water, aliquoting into 660 uL proportions, and storing at -20 C until use. BCIP/NBT developer was prepared immediately before use by mixing one 66 uL aliquot of BCIP and one 660 uL aliquot of NBT in 20 mL AP development buffer.
For a typical mini-Ah immunoassay utilizing 12 samples, 5 mL of Transformed Ah Receptor Affinity Gel slurry described above was pipeted into a 50 mL conical tube. The slurry was washed with 40 mL HEDG and centifuged at 1000 g for 5 min, the supernatant withdrawn and discarded, the pellet washed with 40 mL HEDG, and centrifuged again. After the second centrifugation all but 5 mL of supernatant was withdrawn and the gel thus resuspended in the original volume. 10 mL guinea pig hepatic cytosol was thawed. The thawed cytosol was pooled and then divided into two 5 mL groups and treated with either 5 uL DMSO or 5 uL 10 uM TCDD in DMSO.
Assembly of transformation mixture:In the preferred embodiment of the mini-Ah immunoassay, each sample was composed of one 1.5 mL microfuge tube with the following sequential additions: 90 uL 4 M NaCl/HEDG, 400 uL Transformed Ah Receptor Affinity Gel slurry and 800 uL cytosol (treated with DMSO or TCDD as described above). The three components described above are the minimum components added at that step of the mini-Ah immunoassay. Any additional materials, such as ARNT, anti-ARNT and anti-Rabbit/alkaline phosphatase conjugate, were sometimes also added at this time as described in the specific examples. After assembly of the samples, the tubes were capped and the samples incubated at room temperature for 2 hours with gentle rocking to allow transformation of the Ah receptor to take place, interaction of transformed Ah receptor and ARNT, and binding of the transformed Ah receptor as a heteromer to the DRE oligonucleotide contained on the Transformed Ah Receptor Affinity Gel.
Isolation transformed Ah receptor: After the 2 hour incubation the mixtures were pipetted into the empty column barrels and allowed to drain. […]

T1 sequence (Q6J287 10-846): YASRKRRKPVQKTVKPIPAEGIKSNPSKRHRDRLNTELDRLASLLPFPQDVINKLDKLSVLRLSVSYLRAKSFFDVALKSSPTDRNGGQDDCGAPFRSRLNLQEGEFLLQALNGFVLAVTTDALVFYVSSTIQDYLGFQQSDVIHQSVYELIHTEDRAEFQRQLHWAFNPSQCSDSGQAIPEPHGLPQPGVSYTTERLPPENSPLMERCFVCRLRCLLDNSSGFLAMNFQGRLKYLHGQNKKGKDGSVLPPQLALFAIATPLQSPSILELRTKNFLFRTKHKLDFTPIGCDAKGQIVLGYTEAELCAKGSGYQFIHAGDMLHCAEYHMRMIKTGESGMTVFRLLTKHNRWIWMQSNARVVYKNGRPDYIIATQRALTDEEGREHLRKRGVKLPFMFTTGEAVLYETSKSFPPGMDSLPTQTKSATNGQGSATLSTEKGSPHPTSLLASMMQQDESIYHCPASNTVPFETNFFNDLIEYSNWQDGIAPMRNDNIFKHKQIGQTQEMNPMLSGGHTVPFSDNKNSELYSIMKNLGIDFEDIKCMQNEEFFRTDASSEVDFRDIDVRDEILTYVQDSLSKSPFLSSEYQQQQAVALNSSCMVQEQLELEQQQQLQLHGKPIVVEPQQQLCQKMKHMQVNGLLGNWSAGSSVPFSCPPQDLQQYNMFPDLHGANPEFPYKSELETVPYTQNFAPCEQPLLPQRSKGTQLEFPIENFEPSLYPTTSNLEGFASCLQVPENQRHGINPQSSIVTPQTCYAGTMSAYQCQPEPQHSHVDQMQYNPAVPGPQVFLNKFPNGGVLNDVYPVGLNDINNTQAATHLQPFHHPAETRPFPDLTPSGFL
T1 sequence (Q0WXX3 1-790 partner): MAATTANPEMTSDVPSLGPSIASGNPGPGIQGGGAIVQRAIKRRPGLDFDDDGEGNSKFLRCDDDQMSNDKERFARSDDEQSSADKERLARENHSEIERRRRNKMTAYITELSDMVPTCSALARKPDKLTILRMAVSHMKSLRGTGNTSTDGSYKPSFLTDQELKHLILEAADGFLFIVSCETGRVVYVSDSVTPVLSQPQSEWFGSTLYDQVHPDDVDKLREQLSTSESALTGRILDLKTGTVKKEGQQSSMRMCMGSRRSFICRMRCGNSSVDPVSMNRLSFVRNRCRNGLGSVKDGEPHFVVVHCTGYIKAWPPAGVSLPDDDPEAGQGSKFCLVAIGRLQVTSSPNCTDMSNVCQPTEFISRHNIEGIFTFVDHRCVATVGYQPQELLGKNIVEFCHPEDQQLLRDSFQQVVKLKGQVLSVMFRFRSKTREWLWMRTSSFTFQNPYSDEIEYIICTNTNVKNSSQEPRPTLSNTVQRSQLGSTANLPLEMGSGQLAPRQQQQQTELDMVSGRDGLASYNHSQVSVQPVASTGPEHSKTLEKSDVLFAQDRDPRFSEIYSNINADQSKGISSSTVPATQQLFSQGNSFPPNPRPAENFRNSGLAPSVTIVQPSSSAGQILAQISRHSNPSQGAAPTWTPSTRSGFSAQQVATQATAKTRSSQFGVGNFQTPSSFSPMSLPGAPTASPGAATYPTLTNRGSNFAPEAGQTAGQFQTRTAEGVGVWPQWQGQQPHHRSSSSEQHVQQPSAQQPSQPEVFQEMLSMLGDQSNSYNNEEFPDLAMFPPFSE

SMILES: Clc1cc2c(cc1Cl)Oc1cc(Cl)c(Cl)cc1O2 [TCDD, 2,3,7,8-tetrachlorodibenzo-p-dioxin]
- spot density, difference TCDD treated (+) minus DMSO treated (-) (Example 1, arnt spike 2 ug): 224497
- spot density, average (Example 1, arnt spike 2 ug, TCDD (+), average of two replicates): 303679
- spot density (Example 1, arnt spike 2 ug, TCDD (+), single replicate): 308831 and 298526
- spot density, difference TCDD treated (+) minus DMSO treated (-) (Example 1, normal protocol, no ARNT added): 49541
- spot density, average (Example 1, normal protocol, no ARNT added, TCDD (+), average of two replicates): 149868
- spot density (Example 1, normal protocol, no ARNT added, TCDD (+), single replicate): 157620 and 142115
- spot density, difference TCDD treated (+) minus DMSO treated (-) (Example 2, 0.5 ug arnt): 129849
- spot density, average (Example 2, 0.5 ug arnt, TCDD (+), average of two replicates): 174210
- spot density (Example 2, 0.5 ug arnt, TCDD (+), single replicate): 184049 and 164371
- spot density, difference TCDD treated (+) minus DMSO treated (-) (Example 2, 2.0 ug arnt): 209747
- spot density, average (Example 2, 2.0 ug arnt, TCDD (+), average of two replicates): 270107
- spot density (Example 2, 2.0 ug arnt, TCDD (+), single replicate): 281912 and 258302
- density, difference TCDD treated (+) minus DMSO treated (-) (Example 3, normal, anti-Ah receptor probe): 77724
- density, average (Example 3, normal, anti-Ah receptor probe, TCDD (+), average of two replicates): 169988
- density (Example 3, normal, probed with anti-Ah receptor/alkaline phosphatase, TCDD (+), single replicate): 177175 and 162801
